Test results from patent US20220192935A1, “COMPOSITION FOR A TOPICAL APPLICATION ON THE SKIN” (Biodermic Health & Beauty GmbH & Co. KG, priority 2019, published 2022).

Test system: organisms of the skin flora (Corynebacterium minutissimum, Streptococcus mitis, Staphylococcus epidermidis, Staphylococcus galinarum, Propionibacterium acnes …)
Assay: Investigation of single ingredients for influence on the growth of the organisms of the skin flora
Assay type: cell-based
Conditions: single ingredient, result in words
Description: The surprising positive effect of the above-described substances or substance groups on the growth of the microorganisms of the skin flora has been confirmed by investigations on microorganisms of the skin flora. Specifically, this involved analyzing the growth of the following species: Corynebacterium minutissimum, Streptococcus mitis, Staphylococcus epidermidis, Staphylococcus galinarum, Propionibacterium acnes, and Malassezia furfur, Malassezia sympodialis, Malassezia globosa and Malassezia restricta. The positive effect can be attributed to the fact that the microorganisms present on the skin cannot make use of the substances investigated. […] Investigations on Corynebacterium minutissimum, Streptococcus mitis, Staphylococcus epidermidis, Staphylococcus galinarum, Propionibacterium acnes, and Malassezia furfur, Malassezia sympodialis, Malassezia globosa and Malassezia restricta have confirmed this effect. The positive effect of these emulsifiers in terms of their influence on the growth of organisms of the skin flora has been confirmed by investigations on Corynebacterium minutissimum, Streptococcus mitis, Staphylococcus epidermidis, Staphylococcus galinarum, Propionibacterium acnes, and Malassezia furfur, Malassezia sympodialis, Malassezia globosa and Malassezia restricta. […]

Caprylic/Capric Triglyceride
influence on the growth of the organisms of the skin flora: No growth-promoting influence was detected
